In patent US11440913B2, “Aminoimidazopyridazines as kinase inhibitors” (BRISTOL-MYERS SQUIBB COMPANY, priority 2017, dated 2022):
Where a name gives a salt, the structure may show the parent alone. Read-outs that look alike come from different tables or passages of the source.

Tests used:
[1] = system: MLKL phosphorylation in HT29-L23 human colorectal adenocarcinoma cells; test: MLKL Phosphorylation High-Content Assay; type: cell-based; conditions: 6 h, necroptosis induced with TNFα, SMAC mimetic and Z-VAD, read-out: pMLKL (IC50)
How it was run: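 HT29-L23 cells pretreated 30 min at 37 °C with compound (6.25 to 0.106 μM final), then necroptosis induced with TNFα 35 ng/mL, SMAC mimetic 700 nM and Z-VAD 140 nM for 6 h. Fixed cells immunostained for MLKL pS358 and imaged; IC50 and Ymax from 4-parameter logistic fit.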

[2] = molecular target: His-GST-TVMV-hRIPK1(1-324) (Homo sapiens (Human), UniProt Q13546); test: RIPK1 HTRF Binding Assay; conditions: HTRF binding, 1 h at rt; read-out: RIPK1 (IC50)
How it was run: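 HTRF probe-displacement binding: 1 nM His-GST-TVMV-hRIPK1(1-324) (baculovirus construct), 90.6 nM probe, 0.2 nM anti-GST-Tb in 20 mM HEPES, 10 mM MgCl2, 0.015% Brij-35, 4 mM DTT, 0.05 mg/mL BSA. Incubated 1 h at rt; FRET 520/495 nm ratio, inhibition relative to DMSO-only wells.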

Sequence of His-GST-TVMV-hRIPK1(1-324) (Q13546 1-324): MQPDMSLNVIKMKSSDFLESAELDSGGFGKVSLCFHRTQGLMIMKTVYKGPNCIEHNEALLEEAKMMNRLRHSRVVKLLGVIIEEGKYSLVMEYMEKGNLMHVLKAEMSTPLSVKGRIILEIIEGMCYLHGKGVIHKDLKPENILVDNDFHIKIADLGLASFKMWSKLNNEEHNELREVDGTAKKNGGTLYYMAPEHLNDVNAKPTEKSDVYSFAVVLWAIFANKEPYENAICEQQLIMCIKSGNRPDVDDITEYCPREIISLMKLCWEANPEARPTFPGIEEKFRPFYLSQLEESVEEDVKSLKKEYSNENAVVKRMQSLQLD

Row | SMILES | IC50 ([1]; Homo sapiens) [nM] | IC50 [2] [nM] | IC50 [1] [nM]
1 | CC(=O)Nc1cn2nc(-c3cc(C(=O)NCc4cc(F)cc(F)c4OCC4CCCC4)c(C)nc3C)ccc2n1 [Example 90, N-{[2-(cyclopentylmethoxy)-3,5-difluorophenyl]methyl}-5-{2-acetamidoimidazo[1,2-b]pyridazin-6-yl}-2,6-dimethylpyridine-3-carboxamide] | 3 | 5 | 
2 | CC(=O)Nc1cn2nc(-c3cncc(C(=O)NCc4ccccc4OC4CCCC4)c3)ccc2n1 [Example 21, N-{[2-(cyclopentyloxy)phenyl]methyl}-5-{2-acetamidoimidazo[1,2-b]pyridazin-6-yl}pyridine-3-carboxamide] | 29 | 10 | 
3 | CC(=O)Nc1cn2nc(-c3ccc(C)c(C(=O)NCC(O)COc4ccccc4)c3)ccc2n1 (centres unmarked) [Example 400, 5-{2-acetamidoimidazo [1,2-b]pyridazin-6-yl}-N-(2-hydroxy-3-phenoxypropyl)-2-methylbenzamide] | 11 | 11 | 
4 | COc1ncc(-c2ccc3nc(NC(=O)CC#N)cn3n2)cc1C(=O)NCc1cc(F)cc(F)c1OCC1CC1 [Example 7, 5-[2-(2-cyanoacetamido)imidazo[1,2-b]pyridazin-6-yl]-N-{[2-(cyclopropylmethoxy)-3,5-difluorophenyl]methyl}-2-methoxypyridine-3-carboxamide] | 38 | 14 | 
5 | [2H]C([2H])([2H])Oc1ncc(-c2ccc3nc(NC(C)=O)cn3n2)cc1C(=O)NCc1c(F)cccc1OCC(F)(F)F [Example 42, 5-{2-acetamidoimidazo[1,2-b]pyridazin-6-yl}-N-{[2-fluoro-6-(2,2,2-trifluoroethoxy)phenyl]methyl}-2-(D3)methoxypyridine-3-carboxamide] | 13 | 11 | 
6 | COc1ncc(-c2ccc3nc(NC(C)=O)cn3n2)cc1C(=O)NCc1cc(OC(F)(F)F)ccc1F [Example 154, 5-{2-acetamidoimidazo[1,2-b]pyridazin-6-yl}-N-{[2-fluoro-5-(trifluoromethoxy)phenyl]methyl}-2-methoxypyridine-3-carboxamide] | 15 | 13 | 
7 | [2H]C([2H])([2H])Oc1ncc(-c2ccc3nc(NC(C)=O)cn3n2)cc1C(=O)NCc1cc(OCC2CC2)ccc1F [Example 56, N-{[5-(cyclopropylmethoxy)-2-fluorophenyl]methyl}-5-{2-acetamidoimidazo[1,2-b]pyri-dazin-6-yl}-2-(D3)methoxypyridine-3-carboxamide, TFA] | 67 | 13 | 
8 | [2H]C([2H])([2H])[C@@H](NC(=O)c1c(C)ccc(-c2ccc3nc(NC(C)=O)cn3n2)c1F)c1cc(C(F)(F)F)ccc1F [Example 413, 3-{2-acetamidoimidazo [1,2-b]pyridazin-6-yl}-2-fluoro-N-[(1R)-1-[2-fluoro-5-(trifluoromethyl)phenyl](2,2,2-Â^2Hâ,f)ethyl]-6-methylbenzamide] | 1 | 3 | 
9 | [2H]C([2H])([2H])Oc1nc(C)c(-c2ccc3nc(NC(C)=O)cn3n2)cc1C(=O)NCc1cc(F)cc(F)c1OC1CCOC(C)C1 (centres unmarked) [Example 172, N-({3,5-difluoro-2-[(2-methyloxan-4-yl)oxy]phenyl}methyl)-5-{2-acetamidoimidazo[1,2-b]pyridazin-6-yl}-2-(deutero)methoxy-6-methylpyridine-3-carboxamide] | 16 | 15 | 
10 | CC(=O)Nc1cn2nc(-c3ccc(C)c(C(=O)NCc4cc(C(=O)N5CC(F)(F)C5)ccc4F)c3)ccc2n1 [Example 404, N-{[5-(3,3-difluoroazetidine-1-carbonyl)-2-fluorophenyl]methyl}-5-{2-acetamidoimidazo [1,2-b]pyridazin-6-yl}-2-methylbenzamide] | 259 | 52 | 
11 | O=C(CN1CCC(C(F)(F)F)CC1)Nc1cn2nc(-c3cccc(C(=O)NCC[C@@H](O)c4ccc(Cl)cc4)c3F)ccc2n1 [Example 428, N-[(3R)-3-(4-chlorophenyl)-3-hydroxypropyl]-2-fluoro-3-(2-{2-[4-(trifluoromethyl)piperidin-1-yl]acetamido}imidazo[1,2-b]pyridazin-6-yl)benzamide] | 9 | 12 | 
12 | CC(=O)Nc1cn2nc(-c3cnc(C)c(C(=O)Nc4cnn(C(C)c5ccc(F)cc5)c4)c3)ccc2n1 (centres unmarked) [Example 348, 5-{2-acetamidoimidazo[1,2-b]pyridazin-6-yl}-N-{1-[1-(4-fluorophenyl)ethyl]-1H-pyrazol-4-yl}-2-methylpyridine-3-carboxamide] | 27 | 2 | 
13 | CC(=O)Nc1cn2nc(-c3cc(F)c(C)c(C(=O)NCc4ccccc4Oc4ccccc4)c3)ccc2n1 [Example 364, 5-{2-acetamidoimidazo [1,2-b]pyridazin-6-yl}-3-fluoro-2-methyl-N-[(2-phenoxyphenyl)methyl] benzamide] | 7 | 7 | 
14 | COc1ncc(-c2ccc3nc(NC(C)=O)cn3n2)cc1C(=O)NCc1cccc(F)c1OC(C)C1CC1 (centres unmarked) [Example 144, N-{[2-(1-cyclopropylethoxy)-3-fluorophenyl]methyl}-5-{2-acetamidoimidazo[1,2-b]pyridazin-6-yl}-2-methoxypyridine-3-carboxamide] |  | 6 | 6
15 | COc1ncc(-c2ccc3nc(NC(=O)C(C)C)cn3n2)cc1C(=O)NCc1cc(F)cc(F)c1OCC1CC1 [Example 5, N-{[2-(cyclopropylmethoxy)-3,5-difluorophenyl]methyl}-2-methoxy-5-[2-(2-methylpropanamido)imidazo[1,2-b]pyridazin-6-yl]pyridine-3-carboxamide] | 11 | 7 | 
16 | COc1nc(C)c(-c2ccc3nc(NC(C)=O)cn3n2)cc1C(=O)NCc1cccnc1OCC1CCCC1 [Example 313, N-{[2-(cyclopentylmethoxy)pyridin-3-yl]methyl}-5-{2-acetamidoimidazo[1,2-b]pyridazin-6-yl}-2-methoxy-6-methylpyridine-3-carboxamide] | 22 | 9 | 
17 | COc1nc(C)c(-c2ccc3nc(NC(C)=O)cn3n2)cc1C(=O)NCc1cc(F)c(F)cc1OCC1CC1 [Example 284, N-{[2-(cyclopropylmethoxy)-4,5-difluorophenyl]methyl}-5-{2-acetamidoimidazo[1,2-b]pyridazin-6-yl}-2-methoxy-6-methylpyridine-3-carboxamide] | 5 | 5 | 
18 | COc1nc(C)c(-c2ccc3nc(NC(C)=O)cn3n2)cc1C(=O)NCc1cc(C(F)(F)F)ccc1F [Example 296, 5-{2-acetamidoimidazo[1,2-b]pyridazin-6-yl}-N-{[2-fluoro-5-(trifluoromethyl)phenyl]methyl}-2-methoxy-6-methylpyridine-3-carboxamide] | 20 | 10 | 
19 | CC(=O)Nc1cn2nc(-c3ccc(C)c(C(=O)NCc4cc(F)cc(F)c4C(=O)N4CC[C@H](O)C4)c3)ccc2n1 [Example 407, N-({3,5-difluoro-2-[(3S)-3-hydroxypyrrolidine-1-carbonyl]phenyl}methyl)-5-{2-acetamidoimidazo [1,2-b]pyridazin-6-yl}-2-methylbenzamide] | 388 | 37 | 
20 | COc1ncc(-c2ccc3nc(NC(C)=O)cn3n2)cc1C(=O)NCc1ccc(F)cc1OC(F)(F)F [Example 120, 5-{2-acetamidoimidazo[1,2-b]pyridazin-6-yl}-N-{[4-fluoro-2-(trifluoromethoxy)phenyl]methyl}-2-methoxypyridine-3-carboxamide] | 383 | 170 | 
21 | COc1nc(C)c(-c2ccc3nc(NC(C)=O)cn3n2)cc1C(=O)NCc1ccccc1OCC1CCC(F)(F)CC1 [Example 310, N-({2-[(4,4-difluorocyclohexyl)methoxy]phenyl}methyl)-5-{2-acetamidoimidazo[1,2-b]pyridazin-6-yl}-2-methoxy-6-methylpyridine-3-carboxamide] | 125 | 21 | 
22 | CC(=O)Nc1cn2nc(-c3cnc(C)c(C(=O)NCc4ccccc4OCC4CC4)c3)ccc2n1 [Example 227, N-{[2-(cyclopropylmethoxy)phenyl]methyl}-5-{2-acetamidoimidazo [1,2-b]pyridazin-6-yl}-2-methylpyridine-3-carboxamide] | 21 | 8 | 
23 | COc1cc(C)c(-c2ccc3nc(NC(=O)CO)cn3n2)cc1C(=O)NCc1cc(OC(F)(F)F)ccc1F [Example 422, N-(2-fluoro-5-(trifluoromethoxy)benzyl)-5-(2-(2-hydroxyacetamido)imidazo[1,2-b]pyridazin-6-yl)-2-methoxy-4-methylbenzamide] | 75 | 6 | 
24 | [2H]C([2H])(Oc1c(F)cc(F)cc1CNC(=O)c1cc(-c2ccc3nc(NC(C)=O)c(C)n3n2)cnc1OC)C1CC1 [Example 259, N-({2-[cyclopropyl(deutero)methoxy]-3,5-difluorophenyl}methyl)-5-{2-acetamido-3-methylimidazo[1,2-b]pyridazin-6-yl}-2-methoxypyridine-3-carboxamide] | 13 | 3 | 
25 | [2H]C([2H])(NC(=O)c1cc(-c2ccc3nc(NC(C)=O)cn3n2)cnc1C)c1cc(C(F)(F)F)ccc1F [Example 200, 5-{2-acetamidoimidazo[1,2-b]pyridazin-6-yl}-N-{[2-fluoro-5-(trifluoromethyl)phenyl] (deutero)methyl}-2-methylpyridine-3-carboxamide] | 34 | 17 | 
